Laboratory results as given in patent publication US20220213030A1, “AMINOGUANIDINE HYDRAZONES AS RETROMER STABILIZERS USEFUL FOR TREATING NEUROLOGICAL DISEASES” (OSPEDALE SAN RAFFAELE SRL, priority 2019, published 2022).

Assays:
CMC = CMC (Homo sapiens, UniProt Q96QK1+Q9UBQ0); details: in vitro; cited from earlier work
VPS26 = details: neuronal cultures; cited from earlier work
neuronal cultures = details: cited from earlier work
Aβ40 = details: wild type and APP-mutated hippocampal neurons; cited from earlier work
Aβ42 = details: wild type and APP-mutated hippocampal neurons; cited from earlier work
VPS35 [1] = molecular target: VPS35 (Homo sapiens, UniProt Q96QK1+Q9UBQ0); parameters: host or cells: neuronal cultures; details: neuronal cultures; cited from earlier work
VPS35 [2] = molecular target: T1, VPS35 (Mus musculus, UniProt Q9EQH3+Q9QZ88); assay: VPS35 levels in Neuro2a cells by Western blot (screening of amino guanidine hydrazones); type: cell-based; parameters: endogenous in cells; host or cells: Neuro2a; details: 48 hours, compounds at 10 μM
Procedure: To functionally screen the majority of synthetized amino guanidine hydrazones of the invention and determine their effects on the retromer complex, we incubated Neuro2a cells with each synthetized molecule at the concentration of 10 μM.
The test was executed in triplicate for each tested compound of the invention, cells lysates were established after 48 hours' incubation, and levels of VPS35 were normalized on the housekeeping gene β-Actin by Western blot. We observed a preliminary SAR among the compounds.
Fold changes are calculated over normalized VPS35 levels measured in vehicle-treated cells.
Neuro2a cells were seeded on 12 wells multiwell at the concentration of 100 000 cells/well. Cells were incubated with each compound, including the standard R55, at 10 μM for 48 hours. Cells were then washed in PBS 1× and lysed in a buffer containing Tris-HCl 10 mM pH8, EDTA 1 mM pH8, NaCl 100 mM, NP40 1%, with protease inhibitor cocktail (Sigma) 1×. Using a cell scraper total lysates were collected from each well, quantified with BCA (BCA protein assay, Thermofisher). Five μg were resolved on precast 10% acrylamide gel (Biorad). Proteins were transferred to a PVDF membrane (Millipore) and western blot were performed using the following antibodies: goat αVPS35 (1:1000), mouse α-βActin (1:10000). Detection of proteins was obtained by a chemiluminescence detection kit (PerkinElmer).

VPS35 [3] = molecular target: T1, VPS35; assay: VPS35 levels in spinal cord extracts of C57BL6J mice by western blot; type: in vivo; parameters: Lumbar spinal cords were dissected from saline perfused mice and rapidly homogenized; from tissue; host or cells: lumbar spinal cord of mice; details: 10 mg/kg daily intraperitoneal for 7 days
Procedure: We next asked whether the compound 2a can cross the blood brain barrier (BBB) of the brain. We run a pharmacokinetic assay on C57BL6J mice that received daily intraperitoneal injections of compound 2a (10 mg/Kg/day). Mice were sacrificed after 1, 7, 15 and 30 days saline perfused to avoid the CNS contamination of compounds contained in blood circulation and brains used for the determination of compound 2a levels by mass spectrometry. […] We next investigated in vivo if the retromer stabilization occurs in response to Compound 2a treatment. We intraperitoneally injected R55 and Compound 2a in adult C57BL6J mice as above described. After one week, mice were sacrificed, proteins extracts were assayed by western blot.
Lumbar spinal cords were dissected from saline perfused mice and rapidly homogenized in the following lysis buffer: Tris-HCl 10 mM pH 8, EDTA pH 8 1 mM, NaCl 100 mM, NP40 1% and protease inhibitor cocktail (Sigma). Protein extracts were obtained using a tight-fitting glass Potter tissue grinder (1 ml; Wheaton) and then sonicated at a frequency of 20 kHz (10 times-1s). […] Protein concentrations were measured by BCA protein assay kit (Thermofisher) according to the manufacturer's recommendations. […] Quantifications were done using the Image Lab 6.0.1 software (Bio-Rad).

**Q.** What does the source list for `N=C(N)SCc1ccc(CSC(=N)N)s1` [Compound R55]?
**A.** increase in denaturation temperature (CMC): ≈ 10 °C; VPS26 levels (VPS26): ≈ 150%; not toxic up to (concentration) (neuronal cultures): up to 50 μM; reduction of Aβ40 levels (Aβ40): up to 44%; reduction of Aβ42 levels (Aβ42): up to 39%; VPS35 levels (VPS35 [1]): ≈ 180%; VPS35 levels (in words) (VPS35 [2]): efficiently and dose-dependently increased VPS35 levels; VPS35 levels in SC extracts (ratio versus vehicle-treated mice) (VPS35 [3]): did not increase VPS35 levels
